Data on 12 compounds can be found in patent publication US12459912B2 (priority 2020, dated 2025).

For experiment [1], the system named is Swiss CD 1 mice. The experiment can be described thus: Marble burying test. It counts as in vivo. As to conditions: racemic compounds, intraperitoneally 30 minutes before a 30-min session.
Experiment [2] has as its target T1, human SERT (Homo sapiens, UniProt P31645).
T1 construct: expressed in transfected cells
The experiment can be described thus: hSERT [^3H]serotonin release assay (CHO cells). In kind it is cell-based. As to conditions: for [^3H]-labeled serotonin release (figure legend): percent of max release compared to a control, as function of concentration.

The target of experiment [3] is T2, human DAT (Homo sapiens, UniProt Q01959).
T2 construct: expressed in transfected cells
In words: hDAT [^3H]dopamine release assay (CHO cells). The following applies: for DAT/SERT ratio: (DAT EC50)^−1/(SERT EC50)^−1, larger numbers indicate higher DAT selectivity; for [^3H]-labeled dopamine release (figure legend): percent of max release compared to a control, as function of concentration. It counts as cell-based.

For experiment [4], the target named is 5-Hydroxytryptamine (Serotonin) Receptor 1B (5-HT1B) (Homo sapiens, UniProt P28222). In words: 5-HT1B/cAMP. As to conditions: EC50 at 5-HT1B, agonist. In kind it is cell-based.
Experiment [5] concerns the target T3, human 5-HT transporter (hSERT) (Homo sapiens, UniProt P31645).
T3 construct: expressed in transfected cells; host or cells: CHO cells
The experiment can be described thus: Human serotonin transporter antagonist radioligand assay ([^3H]imipramine, CHO cells). It counts as binding. How it is done:
We therefore separately measured interactions with these transporters using two additional types of assays: an antagonist radioligand assay of inhibition of the human 5-HT transporter (hSERT) expressed in CHO cells (Tatsumi, M. et al. (1999), Eur. J. Pharmacol., 368: 277-283) and an assay measuring release of [^3H] […] While the former is sensitive to classic reuptake inhibition, the latter can detect the effects of substrates, which also induce release.
Benzothiophene derivatives were evaluated for inhibiting the human 5-HT transporter (hSERT) as expressed in CHO cells using an antagonist radioligand assay (Tatsumi, M. et al. (1999), Eur. J. Pharmacol., 368: 277-283). […] Test compounds were assayed in three trials at […], and 0.94868 μM.
When compounds are substrates for monoamine transporters instead of solely inhibitors, it is known that IC50 values underestimate their potency for interacting with these transporters (Ilic, M. et al. (2020), Frontiers in Pharmacology 11: 673).

Experiment [6] deals with T4, GABAA (Gamma-aminobutyric acid Receptor A).
T4 construct: other: opener
It counts as cell-based. As to conditions: reference compound, Blocker mode; read-out: RC50 (μM), Result Type IC50.

The target of experiment [7] is T5, nAChR(a4/b2) (Nicotinic acetylcholine Receptor α4 β2) (Homo sapiens, UniProt P17787+P43681).
T5 construct: expressed in transfected cells
In words: cell-based. As to conditions: reference compound, Blocker mode; read-out: RC50 (μM), Result Type IC50.

For experiment [8], the system named is neuritogenesis. As to conditions: Ly et al. 2018, cited from earlier work.
For experiment [9], the target named is 5-HT1B (Homo sapiens, UniProt P28222). As to conditions: Ray 2010; cited from earlier work.
Experiment [10] addresses MAO-A (Rattus norvegicus, UniProt P21396). As to conditions: read-out: IC50 MAO-A; Vallejos et al. 2005; cited from earlier work.
The conditions of experiment [11]: Poos 1967; cited from earlier work.

Entries after “also recorded” stand apart in the source; their conditions may differ.

5-Hydroxytryptamine (Serotonin) Receptor 1B (5-HT1B), sequence (P28222 whole entry): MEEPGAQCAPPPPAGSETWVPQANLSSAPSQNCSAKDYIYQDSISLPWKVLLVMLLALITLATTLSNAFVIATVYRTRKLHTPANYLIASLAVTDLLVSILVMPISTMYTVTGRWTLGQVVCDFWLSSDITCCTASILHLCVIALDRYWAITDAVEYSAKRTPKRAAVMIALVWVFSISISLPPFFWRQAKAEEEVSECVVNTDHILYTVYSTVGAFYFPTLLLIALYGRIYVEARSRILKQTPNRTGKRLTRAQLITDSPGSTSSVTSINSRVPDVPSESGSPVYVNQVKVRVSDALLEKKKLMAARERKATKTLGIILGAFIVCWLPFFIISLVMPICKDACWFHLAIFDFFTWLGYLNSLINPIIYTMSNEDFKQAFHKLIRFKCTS
T2 sequence (Q01959 whole entry): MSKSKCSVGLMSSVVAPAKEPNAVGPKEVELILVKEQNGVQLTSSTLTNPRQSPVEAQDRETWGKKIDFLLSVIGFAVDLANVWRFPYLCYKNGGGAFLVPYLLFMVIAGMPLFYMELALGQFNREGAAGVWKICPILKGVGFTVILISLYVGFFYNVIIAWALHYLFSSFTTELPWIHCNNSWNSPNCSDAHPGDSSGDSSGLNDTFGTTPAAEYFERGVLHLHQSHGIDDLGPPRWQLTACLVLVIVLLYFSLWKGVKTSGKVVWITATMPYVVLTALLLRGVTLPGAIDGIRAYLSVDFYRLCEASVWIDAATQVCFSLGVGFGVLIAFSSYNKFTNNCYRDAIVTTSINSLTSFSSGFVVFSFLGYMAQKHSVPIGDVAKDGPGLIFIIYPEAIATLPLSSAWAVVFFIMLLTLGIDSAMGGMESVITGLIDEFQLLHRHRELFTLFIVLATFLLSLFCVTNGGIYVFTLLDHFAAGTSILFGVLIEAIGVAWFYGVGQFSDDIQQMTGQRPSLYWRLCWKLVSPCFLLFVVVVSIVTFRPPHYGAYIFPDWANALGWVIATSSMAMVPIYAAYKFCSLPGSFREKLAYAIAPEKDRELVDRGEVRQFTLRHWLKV
T3 sequence (P31645 whole entry): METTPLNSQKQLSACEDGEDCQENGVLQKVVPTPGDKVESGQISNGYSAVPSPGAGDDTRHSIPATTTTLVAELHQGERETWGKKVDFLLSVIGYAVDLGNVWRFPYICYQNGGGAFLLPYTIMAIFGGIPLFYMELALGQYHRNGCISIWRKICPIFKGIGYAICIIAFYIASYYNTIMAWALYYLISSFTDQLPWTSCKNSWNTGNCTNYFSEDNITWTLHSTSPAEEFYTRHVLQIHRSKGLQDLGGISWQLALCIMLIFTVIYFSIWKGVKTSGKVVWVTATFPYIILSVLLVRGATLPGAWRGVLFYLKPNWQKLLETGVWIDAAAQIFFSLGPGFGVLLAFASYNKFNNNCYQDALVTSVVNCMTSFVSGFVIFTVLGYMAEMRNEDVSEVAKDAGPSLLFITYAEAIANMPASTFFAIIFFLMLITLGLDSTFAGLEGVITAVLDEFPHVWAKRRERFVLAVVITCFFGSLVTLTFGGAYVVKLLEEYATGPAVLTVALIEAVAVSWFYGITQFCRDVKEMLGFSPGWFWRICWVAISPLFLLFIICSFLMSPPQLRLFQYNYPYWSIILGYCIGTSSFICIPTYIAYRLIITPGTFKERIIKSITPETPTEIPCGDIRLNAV
T1 sequence (P31645 whole entry): as above
5-HT1B, sequence (P28222 whole entry, species assumed): as the sequence (P28222 whole entry) above
MAO-A, sequence (P21396 whole entry): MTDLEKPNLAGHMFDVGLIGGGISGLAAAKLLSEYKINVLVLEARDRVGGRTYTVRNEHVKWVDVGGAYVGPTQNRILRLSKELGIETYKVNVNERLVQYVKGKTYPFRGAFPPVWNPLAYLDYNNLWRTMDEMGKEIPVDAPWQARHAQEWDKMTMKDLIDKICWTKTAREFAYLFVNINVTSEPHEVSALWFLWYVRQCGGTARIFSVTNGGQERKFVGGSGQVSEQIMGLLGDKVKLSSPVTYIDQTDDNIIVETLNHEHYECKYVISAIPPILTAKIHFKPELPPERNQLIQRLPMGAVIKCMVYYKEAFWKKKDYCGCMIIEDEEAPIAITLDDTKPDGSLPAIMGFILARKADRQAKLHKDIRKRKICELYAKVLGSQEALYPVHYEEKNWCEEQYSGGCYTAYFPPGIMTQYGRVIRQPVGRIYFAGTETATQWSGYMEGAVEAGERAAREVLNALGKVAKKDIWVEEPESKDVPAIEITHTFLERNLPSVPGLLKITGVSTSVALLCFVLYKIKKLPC
T5 sequence (P43681 29-627 limits assumed): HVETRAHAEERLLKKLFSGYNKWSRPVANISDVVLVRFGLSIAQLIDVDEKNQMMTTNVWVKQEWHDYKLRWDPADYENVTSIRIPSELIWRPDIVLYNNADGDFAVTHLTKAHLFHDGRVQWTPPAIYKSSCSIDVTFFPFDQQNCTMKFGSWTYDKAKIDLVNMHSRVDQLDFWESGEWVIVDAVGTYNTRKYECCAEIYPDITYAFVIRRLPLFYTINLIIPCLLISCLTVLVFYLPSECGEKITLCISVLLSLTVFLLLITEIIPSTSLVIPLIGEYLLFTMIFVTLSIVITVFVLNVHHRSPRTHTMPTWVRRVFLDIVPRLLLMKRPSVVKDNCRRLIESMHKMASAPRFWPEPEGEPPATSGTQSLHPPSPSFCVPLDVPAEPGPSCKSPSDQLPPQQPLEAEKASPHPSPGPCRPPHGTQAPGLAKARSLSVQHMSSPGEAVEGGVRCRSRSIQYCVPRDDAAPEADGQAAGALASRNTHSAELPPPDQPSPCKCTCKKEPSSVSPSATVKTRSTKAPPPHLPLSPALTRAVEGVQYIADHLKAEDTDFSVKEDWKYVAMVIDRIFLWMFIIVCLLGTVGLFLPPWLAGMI
T5 sequence (P17787 26-502): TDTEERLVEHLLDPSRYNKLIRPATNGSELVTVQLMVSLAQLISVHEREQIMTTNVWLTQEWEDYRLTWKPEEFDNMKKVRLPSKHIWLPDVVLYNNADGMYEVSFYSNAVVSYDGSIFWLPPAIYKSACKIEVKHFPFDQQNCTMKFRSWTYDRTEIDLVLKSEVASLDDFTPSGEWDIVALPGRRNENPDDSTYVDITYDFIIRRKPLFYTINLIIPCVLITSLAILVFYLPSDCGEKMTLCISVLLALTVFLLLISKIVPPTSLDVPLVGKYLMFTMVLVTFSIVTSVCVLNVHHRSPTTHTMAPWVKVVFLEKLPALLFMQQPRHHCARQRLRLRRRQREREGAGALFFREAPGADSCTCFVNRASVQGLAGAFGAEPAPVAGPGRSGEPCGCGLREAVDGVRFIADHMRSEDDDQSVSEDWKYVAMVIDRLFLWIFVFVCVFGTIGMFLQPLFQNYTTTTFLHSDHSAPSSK

Regarding `CCNC(C)Cc1ccc2sccc2c1.Cl` (stereo not shown) [Compound 5-EAPBT, 1-(benzothiophen-5-yl)-N-ethylpropan-2-amine hydrochloride], in experiment [1], the “anxiolytic effect (marbles left unburied versus placebo)” value is “dose-dependent anxiolytic effects”. In addition, in experiment [2], the midpoint of the response, the EC50, lay at 53 nM; the “[^3H]-labeled serotonin release (figure legend)” value (“[^3H]-labeled serotonin release” for short) was “rapidly induces extracellular dopamine and serotonin release”. Moreover, in [3], the EC50 was 98 nM; the DAT/SERT ratio stood at 0.54; the “[^3H]-labeled dopamine release (figure legend)” value (shortened to “[^3H]-labeled dopamine release”) is “rapidly induces extracellular dopamine and serotonin release”. Also, the “dopamine release Emax in comparison to the reference releaser amphetamine” value in [3] (high concentrations, 100 μM amphetamine as reference, hydrochloride) is “partial DAT substrate; also recorded: Emax below that of the reference releaser”.
Consider `CNC(C)Cc1ccc2sccc2c1.Cl` (stereo not shown) [Compound 5-MAPBT, 1-(benzothiophen-5-yl)-N-methylpropan-2-amine hydrochloride], for which the “anxiolytic effect (marbles left unburied versus placebo)” value in [1] was “dose-dependent anxiolytic effects”. Further, in [2], the response was half-maximal at 23 nM (EC50); the “[^3H]-labeled serotonin release” value was “rapidly induces extracellular dopamine and serotonin release”. Also, the EC50 in experiment [4] is 38 nM. In addition, in experiment [3], the EC50 is 129 nM; the DAT/SERT ratio came to 0.18; the “[^3H]-labeled dopamine release” value was “rapidly induces extracellular dopamine and serotonin release”.
Regarding `CNC(C)Cc1ccc2ccsc2c1` (stereo not shown) [drawing 525], in experiment [5], the IC50 was 1500 nM and affinity was put at a Ki of 680 nM.
Regarding Picrotoxin [reference compound], in [6], the IC50 came to 2.78 µM.
For `CNC(C)C(=O)c1ccc2sccc2c1.Cl` (stereo not shown) [Bk-5-MAPBT, 1-(benzo[b]thiophen-5-yl)-2-(methylamino) propan-1-one hydrochloride], the “anxiolytic effect (marbles left unburied versus placebo)” value in experiment [1] was “dose-dependent anxiolytic effects”. Further, in [2], it took 101 nM to reach a half-maximal effect (EC50); the “[^3H]-labeled serotonin release” value is “rapidly induces extracellular dopamine and serotonin release”. Further, in [4], the response was half-maximal at 59 nM (EC50). Besides, in [3], the response was half-maximal at 194 nM (EC50); the DAT/SERT ratio stood at 0.52; the “[^3H]-labeled dopamine release” value was “rapidly induces extracellular dopamine and serotonin release”.
As to “Dihydro-AY-erythroidine [reference compound]”, the IC50 in experiment [7] was found to be 0.682 µM.
Consider `CNC(C)C(=O)c1ccc2sccc2c1` (stereo not shown), for which, in experiment [5], the IC50 was found to be 2000 nM and the affinity, expressed as Ki, was 900 nM.
The corresponding values for `CCNC(C)Cc1ccc2sccc2c1` (stereo not shown) are 100 nM and 50 nM.
As to `CNC(C)Cc1ccc2c(c1)OCO2` (stereo not shown) [MDMA], the “Emax for promoting neuritogenesis relative to ketamine” value in experiment [8] is on record as “approximately twice that of ketamine”. In addition, in experiment [8] (read-out: EC50 for promoting neuritogenesis), the EC50 was 7.41 nM. For the same compound, the “binding to 5-HT1B” value in experiment [9] was “does not bind directly”.
For the compound `CNC(C)Cc1ccc2ccsc2c1.Cl` (stereo not shown) [Compound 6-MAPBT, 1-(benzothiophen-6-yl)-N-methylpropan-2-amine hydrochloride], the “anxiolytic effect (marbles left unburied versus placebo)” value in experiment [1] was “dose-dependent anxiolytic effects”. In [2], the EC50 came out at 57 nM; the “[^3H]-labeled serotonin release” value was “rapidly induces extracellular dopamine and serotonin release”. This compound came in with an EC50 in [4] of 24 nM. For the same compound, in [3], the EC50 was 71 nM; the DAT/SERT ratio is on record as 0.80; the “[^3H]-labeled dopamine release” value was “rapidly induces extracellular dopamine and serotonin release”.
For the compound `CC(N)Cc1csc2ccccc12` (stereo not shown) [Compound 3-APBT, 1-(1-benzothiophen-3-yl)propan-2-amine], the IC50 in experiment [10] was 16200 ± 400 nM. Further, the effect on appetite entry in [11] is given as “acted to reduce appetite”.
For the compound `CNC(C)Cc1ccc2sccc2c1` (stereo not shown), in experiment [5], the IC50 worked out at 250 nM and the Ki stood at 120 nM.

For orientation: EC50 means the concentration needed to bring the measured effect to its halfway point. What is called IC50 is the midpoint of a concentration-inhibition curve. A word on the Ki: it is a dissociation constant, usually derived from enzyme kinetics or from competition with a known ligand. Lower therefore signals a stronger hold on the target.
